We go through two compounds from patent publication US10604473B2, “Lipids that increase insulin sensitivity and methods of using the same” (Beth Israel Deaconess Medical Center, Inc., priority 2013, dated 2020).

The test system of assay [1] is STC-1 cells. In words: ERK phosphorylation in STC-1 cells (immunoblot). The class given is cell-based. The note with it: 15 minutes stimulation. As to the method:
For the experiments summarized in FIG. 40, STC-1 cells were incubated with 9-PAHSA, 5-PAHSA or 9-OAHSA at the indicated concentrations. Cells were harvested and lysed and proteins were separated by SDS PAGE and transferred onto nitrocellulose filters. The phosphorylation of ERK and the amount of total ERK was determined by immunoblotting with antibodies specific for total or phosphor-ERK. DMSO was the control. For ERK phosphorylation, cells were serum deprived overnight and stimulated with FAHFAs or vehicle as indicated for 15 minutes followed by lysis in RIPA buffer and analysis by SDS-PAGE
(A western blot detects proteins with antibodies after separation by electrophoresis.)

For assay [2], the system named is 3T3-L1 adipocytes. Briefly: Glucose transport in 3T3-L1 adipocytes. The format is cell-based. As to the method: FIGS. 54A-D show glucose uptake regulation by PAHSAs and Glut4 translocation via GPR120. FIG. 54A is a bar graph showing insulin-stimulated glucose transport in 3T3-L1 adipocytes treated 9-PAHSA (20 μM) or vehicle (DMSO) control for 6 days. n=6 per group, *p<0.05 compared to vehicle by t-test. FIG. 54B is a bar graph showing insulin (10 nM)-stimulated glucose transport in 3T3-L1 adipocytes transfected with control siRNA or GPR120 siRNA and treated 5-PAHSA (10 μM), 9-PAHSA (10 μM) or vehicle (DMSO) control for 2 days. n=3 per group, *p<0.05 compared to DMSO+control siRNA or GPR120 siRNA alone, $p<0.05 compared to control siRNA or GPR120 siRNA+insulin and GPR120 siRNA+insulin+PAHSA by t-test. FIG. 54C is a panel showing Glut4 plasma membrane translocation in 3T3-L1 adipocytes transfected with control siRNA or GPR120 siRNA and treated with 9-PAHSA in the presence or absence of insulin. 6 separate experiments were carried out without RNAi and 3 experiments with RNAi; each experiment had greater than 50 cells per experimental condition. FIG. 54D is a bar graph showing quantification of Glut4 translocation in panel C. *p<0.05 compared to control siRNA+insulin and GPR120 siRNA+insulin+9-PAHSA by t-test. All data are presented as mean±s.e.m. See also FIG. 57.
For all cell culture experiments, FAHFAs were solubilized in DMSO at a concentration of 20 mM and further diluted in assay buffer or cell culture media to the working concentrations indicated for each assay. In all instances an equivalent volume of vehicle (DMSO) was added to control treatment groups.

The target of assay [3] is T1, GPR120 (Homo sapiens, UniProt Q5NUL3).
T1 construct: beta-galactosidase enzyme fragment (ProLink)
T1 sequence (Q5NUL3 1-377 isoform Q5NUL3-1): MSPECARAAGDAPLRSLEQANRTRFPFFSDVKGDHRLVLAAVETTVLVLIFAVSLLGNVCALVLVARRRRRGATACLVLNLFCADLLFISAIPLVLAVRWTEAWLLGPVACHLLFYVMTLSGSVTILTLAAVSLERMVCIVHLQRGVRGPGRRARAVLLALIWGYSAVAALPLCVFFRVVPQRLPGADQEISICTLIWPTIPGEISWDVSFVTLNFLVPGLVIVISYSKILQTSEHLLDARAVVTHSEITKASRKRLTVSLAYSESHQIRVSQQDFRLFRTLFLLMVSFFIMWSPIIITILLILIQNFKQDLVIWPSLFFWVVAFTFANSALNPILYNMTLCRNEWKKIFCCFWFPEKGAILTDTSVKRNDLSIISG
In words: PathHunter beta-Arrestin GPCR assay. The format is cell-based. The source says: FIGS. 57A and 57B are graphs showing GPR120 activation by 9-PAHSA and GPR120 knockdown in 3T3-L1 adipocytes. Specifically, FIG. 57A depicts a GPR120 activity assay using the PathHunter® eXpress GPR120L β-Arrestin GPCR Assay (DiscoverX). n=3 wells per condition. FIG. 57B is a bar graph showing validation of GPR120 knockdown in differentiated 3T3-L1 adipocytes. 3T3-L1 adipocytes (Day 8 post differentiation) were transfected with non-targeting (control) siRNA or three individual GPR120 targeting siRNA's individually or in combination. 48 h post-transfection GPR120 mRNA levels were measured by qPCR and normalized to TBP mRNA levels. n=3 wells per condition.
For the experiments summarized in FIGS. 43-45, the fragment based GPCR assay from DiscoveRx (PATHHUNTER® β-Arrestin assay) was used to as per manufacturer's instructions to determine activation of specific GPCRs as indicated in FIGS. 43-45.

Assay [4] relates to insulin-resistant high-fat fed mice. In words: Insulin tolerance test in HFD-fed mice. The class given is in vivo, mouse. The note with it: for baseline glycemia: 2.5-3 hours after administration; for area above the insulin response curve / insulin sensitivity: ITT. As to the method:
Area under the curve (AUC), *p<0.05 compared to vehicle. […] Area above the curve (AAC). *p<0.05 compared to vehicle. […] Area under the curve (AUC). *p<0.05 compared to vehicle. FIG. 53D is a bar graph showing serum insulin levels 5 min post glucose challenge in chow-fed mice gavaged with 5-PAHSA or vehicle (glucose values shown in FIG. 53C). n=12-14 per group, *p<0.05 compared to vehicle by t-test. FIG. 53E is a bar graph showing serum GLP-1 levels 5 min post glucose challenge from chow-fed mice gavaged with 5-PAHSA or vehicle (glucose levels in FIG. 53C). n=12-14 per group, *p<0.05 compared to vehicle by t-test. FIG. 53F are bar graphs showing insulin secretion from primary human islets from two independent donors. Islets were incubated with low (2.5 mM) or high (20 mM) glucose ex vivo in the presence of 5-PAHSA (20 μM) or vehicle control. n=100 islets per condition, *p<0.05 compared to control 2.5 mM glucose, ^#p<0.05 compared to respective treatments at 2.5 mM glucose, ^$p<0.05 compared to control or diluents at 20 mM glucose by t-test. FIG. 53G are bar graphs showing active GLP-1 secretion from STC-1 cells in response to 5-PAHSA (5-P), 9-PAHSA (9P), […] (LA), GW9508 (GW) or vehicle control (DMSO). n=4 per group, *p<0.05 compared to vehicle by t-test. All data are mean±s.e.m. See also FIG. 56.

“Also recorded” adds a separate entry of the source.

With `CCCCCCCCCCCCCCCC(=O)OC(CCCCCCCCCCCCC)CCCC(=O)O` (stereo not drawn) [5-PAHSA], in assay [1], the ERK phosphorylation entry is on record as “induce ERK phosphorylation”. Besides, in assay [2], the insulin-stimulated glucose transport entry was “enhanced insulin-induced glucose transport”. The GPR120 activation entry in assay [3] is “dose-dependently activated GPR120; also recorded: activate GPR120”. Moreover, in assay [4], the baseline glycemia result is reported as “lowered baseline glycemia”, the “area above the insulin response curve” value was “more than a doubling” and the insulin sensitivity result is on record as “improved insulin sensitivity”.
Take `CCCCCCCCCCCCCCCC(=O)OC(CCCCCCCCC)CCCCCCCC(=O)O` (stereo not drawn) [9-PAHSA, palmitoyl-9-hydroxystearic acid]: the ERK phosphorylation entry in assay [1] is on record as “induce ERK phosphorylation”. In assay [2] (basal state), the glucose transport entry is “modestly increased glucose transport”. For the same compound, the GPR120 activation entry in assay [3] is “dose-dependently activated GPR120; also recorded: is a ligand for the GPCR, GPR120; also recorded: activate GPR120”. In assay [4], the baseline glycemia entry is “lowered baseline glycemia”, the “area above the insulin response curve” value is given as “more than a doubling” and the insulin sensitivity result is recorded as “improved insulin sensitivity”.
